From US4387238A, “Epoxysuccinamic acid compounds” (Taisho Pharmaceutical Co., Ltd., priority 1978, dated 1983)
Read-outs that look alike come from different tables or passages of the source.

How the values were obtained:
[1] = test system: adjuvant-induced polyarthritis; assay: Effect on the development of adjuvant-induced polyarthritis in rat (hind paw volume); type: in vivo, Sprague Dawley rat; conditions: 30 mg/kg of body weight, daily oral, 8 rats/group
Experimental: The compounds of the present invention show excellent anti-inflammatory activity as measured by their ability to inhibit adjuvant induced polyarthritis as compared with the known epoxysuccinates. That is, they show potent and continuous effectiveness on oral administration of smaller components than the known epoxysuccinic acid compounds. Effect of the compounds of the present invention on the development of adjuvant-induced polyarthritis in rat was assayed as follows: Adjuvant arthritis is produced by a single intracutaneous injection of 0.1 ml of the adjuvant mixture containing heat-killed mycobacteria of the human Aoyama B strain suspended in liquid paraffin in 0.6% in the middle part of the distal tail of Sprague Dawley rat (female, 8 weeks old). The compounds suspended in 0.5% carboxymethylcellulose solution protect the animal against the development of lession of adjuvant arthritis in daily oral administration beginning on the day of adjuvant injection and continuing for 24 days thereafter. The activity is measured as the mean inhibition percent for the increase of the hind paw volume of the 8 rats/group on the days 17 and 23 on which the legs become inflamed and reach maximum volumes. The compound Nos. in Table 1 are as defined in Examples as described hereinafter.

papain = target: T1, papain (Carica papaya, UniProt P00784); assay: Papain inhibitory activity (milk casein proteolysis); type: biochemical; design: unit not given beside the values; conditions: amount of inhibitor for 50% inhibition; pH 6.8, 40° C., casein substrate
T1 construct: purchased Sigma Chem. Co
T1 sequence (P00784 134-345): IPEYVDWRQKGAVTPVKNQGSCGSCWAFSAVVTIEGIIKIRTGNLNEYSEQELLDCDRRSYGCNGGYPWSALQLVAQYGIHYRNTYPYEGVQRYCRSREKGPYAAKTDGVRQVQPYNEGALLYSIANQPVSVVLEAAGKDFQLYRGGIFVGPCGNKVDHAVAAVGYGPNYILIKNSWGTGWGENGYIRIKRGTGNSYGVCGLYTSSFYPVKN
Experimental: Papain inhibitory activity of the compounds of the present invention was assayed as follows: To 0.5 ml of a solution of papain (80 μg/ml, Sigma Chem. Co., 2x, cry.), were added 0.25 ml of 40 mM cysteine dissolved in 20 mM disodium ethylenediamine tetraacetic acid solution adjusted pH to 6.8 with sodium hydroxide and 0.25 ml of 33 mM phosphate buffer (pH 6.8) with or without inhibitor. After incubation for 15 minutes at 40° C., the resulting mixture was added to 5 ml of 1% milk casein solution in the same buffer as described above, and further incubated for 10 minutes at 40° C. Then the mixture was mixed with 5 ml of 0.44 M trichloroacetic acid solution and followed by filtration with a sheet of Toyo filter paper No. 4.
The extinction of the filtrate was read at 280 nm. The percent inhibition was calculated from the formula, 100×(B-A)/B; wherein B stands for the absorbance without inhibitor and A for the absorbance with inhibitor. The compound Nos. in Table 2 are as defined in Examples as described hereinafter.

[2] = 408 h, day 17, mean inhibition for increase of hind paw volume, read-out: Inhibition(%) 17 days
[3] = 552 h, day 23, mean inhibition for increase of hind paw volume, read-out: Inhibition(%) 23 days

## CCOC(=O)[C@@H]1O[C@H]1C(=O)Nc1ccccc1 (relative stereo) [Compound No. 1, ethyl N-phenyl-2,3-epoxysuccinamate]
[1]; [2]
  inhibition in vivo at 30 mg/kg: 70%
[1]; [3]
  inhibition in vivo at 30 mg/kg: 62%
papain
  ID50: 24.04 γ

## CCOC(=O)[C@@H]1O[C@H]1C(=O)Nc1ccc([N+](=O)[O-])cc1 (relative stereo) [Compound No. 5, ethyl N-4'-nitrophenyl-2,3-epoxysuccinamate]
[1]; [2]
  inhibition in vivo at 30 mg/kg: 65%
[1]; [3]
  inhibition in vivo at 30 mg/kg: 48%
papain
  ID50: 22.32 γ

## O=C(NC1CCCCC1)[C@@H]1O[C@H]1C(=O)OC1CCCC1 (relative stereo) [Compound No. 25, cyclopentyl N-cyclohexyl-2,3-epoxysuccinamate]
[1]; [2]
  inhibition in vivo at 30 mg/kg: 76%
[1]; [3]
  inhibition in vivo at 30 mg/kg: 58%
papain
  ID50: 3.68 γ

## CCOC(=O)[C@@H]1O[C@H]1C(=O)N(C)C1CCCCC1 (relative stereo) [Compound No. 31, ethyl N-methyl-N-cyclohexyl-2,3-epoxysuccinamate]
[1]; [2]
  inhibition in vivo at 30 mg/kg: 45%
[1]; [3]
  inhibition in vivo at 30 mg/kg: 38%
papain
  ID50: 53.19 γ

## CC(C)COC(=O)[C@H]1O[C@@H]1C(=O)Nc1ccccc1 (relative stereo) [Compound No. 40, Isobutyl N-phenyl-2,3-epoxysuccinamate]
[1]; [2]
  inhibition in vivo at 30 mg/kg: 40%
[1]; [3]
  inhibition in vivo at 30 mg/kg: 35%
papain
  ID50: 13.20 γ

## O=C(Nc1ccccc1)[C@H]1O[C@@H]1C(=O)OC1CCCCC1 (relative stereo) [Compound No. 45, Cyclohexyl N-phenyl-2,3-epoxysuccinamate]
[1]; [2]
  inhibition in vivo at 30 mg/kg: 65%
[1]; [3]
  inhibition in vivo at 30 mg/kg: 49%
papain
  ID50: 5.89 γ

## O=C(NCc1ccccc1)[C@H]1O[C@@H]1C(=O)Oc1ccccc1 (relative stereo) [Compound No. 48, Phenyl N-benzyl-2,3-epoxysuccinamate]
[1]; [2]
  inhibition in vivo at 30 mg/kg: 45%
[1]; [3]
  inhibition in vivo at 30 mg/kg: 40%
papain
  ID50: 3.83 γ

## CCNC(=O)[C@H]1O[C@@H]1C(=O)OC1CCCCC1 (relative stereo) [Compound No. 66, Cyclohexyl N-ethyl-2,3-epoxysuccinamate]
[1]; [2]
  inhibition in vivo at 30 mg/kg: 75%
[1]; [3]
  inhibition in vivo at 30 mg/kg: 62%
papain
  ID50: 11.05 γ

## CCOC(=O)[C@@H]1O[C@H]1C(=O)N1CCC(C)CC1 (relative stereo) [Compound No. 76, ethyl N-3'-methylpentamethylene-2,3-epoxysuccinamate]
[1]; [2]
  inhibition in vivo at 30 mg/kg: 48%
[1]; [3]
  inhibition in vivo at 30 mg/kg: 42%
papain
  ID50: 79.53 γ

## CC(C)CCNC(=O)[C@H]1O[C@@H]1C(=O)O (relative stereo) [Compound No. 97, potassium N-isoamyl-2,3-epoxysuccinamate]
papain
  ID50: 0.266 γ

## O=C(O)[C@@H]1O[C@H]1C(=O)NCC1CCCCC1 (relative stereo) [Compound No. 98, potassium N-cyclohexanemethyl-2,3-epoxysuccinamate]
[1]; [2]
  inhibition in vivo at 30 mg/kg: 55%
[1]; [3]
  inhibition in vivo at 30 mg/kg: 41%
papain
  ID50: 0.205 γ

## O=C(O)[C@@H]1O[C@H]1C(=O)NC1CCCCC1 (relative stereo) [Compound No. 100, sodium N-cyclohexyl-2,3-epoxysuccinamate]
papain
  ID50: 0.231 γ

## O=C(O)[C@@H]1O[C@H]1C(=O)N1CCCCC1 (relative stereo) [Compound No. 101, Potassium N-pentamethylene-2,3-epoxysuccinamate]
papain
  ID50: 4.05 γ

## CCNC(=O)[C@H]1O[C@@H]1C(=O)O (relative stereo) [Compound No. 102, Potassium N-ethyl-2,3-epoxysuccinamate]
papain
  ID50: 1.34 γ

## O=C(O)[C@@H]1O[C@H]1C(=O)N1CCCC1 (relative stereo) [Compound No. 103, Sodium N-tetramethylene-2,3-epoxysuccinamate]
papain
  ID50: 13.42 γ

## O=C(O)[C@@H]1O[C@H]1C(=O)Nc1ccccc1 (relative stereo) [Compound No. 104, Sodium N-phenyl-2,3-epoxysuccinamate]
papain
  ID50: 0.315 γ

## O=C(O)[C@@H]1O[C@H]1C(=O)Nc1ccccc1 (relative stereo) [Compound No. 105, N-phenyl-2,3-epoxysuccinamic acid]
papain
  ID50: 0.278 γ

## O=C(O)[C@@H]1O[C@H]1C(=O)NC1CCCCC1 (relative stereo) [Compound No. 107, N-Cyclohexyl-2,3-epoxysuccinamic acid]
papain
  ID50: 0.214 γ

## O=C(O)[C@@H]1O[C@H]1C(=O)NCC1CCCC1 (relative stereo) [Compound No. 108, N-Cyclopentanemethyl-2,3-epoxysuccinamic acid]
papain
  ID50: 0.234 γ

## C=CCOC(=O)[C@H]1O[C@@H]1C(=O)NCC1CCCC1 (relative stereo) [compound 38, Allyl N-cyclopentanemethyl-2,3-epoxysuccinamate]
papain
  ID50: 4.26 γ

## COC(=O)[C@@H]1O[C@H]1C(=O)NC(C)C (stereo in doubt) [Compound No. 34, Methyl N-isopropyl-2,3-epoxysuccinamate]
papain
  ID50: 32.35 γ

## COC(=O)[C@H]1O[C@@H]1C(=O)NC(C)C (stereo in doubt) [Compound No. 60, Methyl N-isopropyl-2,3-epoxysuccinamate]
papain
  ID50: 32.35 γ

## CCOC(=O)[C@@H]1O[C@H]1C(=O)N1CCOC(C)C1 (stereo partly shown) [Compound No. 33, ethyl N-1'-methyloxydiethylene-2,3-epoxysuccinamate]
papain
  ID50: 95.10 γ

## CCOC(=O)C1OC1C(=O)N1CCSCC1C (stereo not shown) [Compound No. 80, Ethyl N-1'-methylthiadiethylene-2,3-epoxysuccinamate]
papain
  ID50: 120.53 γ

## CCOC(=O)C1OC1C(=O)N1CCCC1C(=O)OCc1ccccc1 (stereo not shown) [Compound No. 86, ethyl N-1'-carbobenzoxytetramethylene-2,3-epoxysuccinamate]
papain
  ID50: 105.50 γ

## CCOC(=O)C1OC1C(=O)N1CCCC1C(=O)OC (stereo not shown) [Compound No. 87, ethyl N-1'-carbomethoxytetramethylene-2,3-epoxysuccinamate]
papain
  ID50: 98.10 γ

## CCCCOC(=O)C1CCCN1C(=O)C1OC1C(=O)OCC (stereo not shown) [Compound No. 88, ethyl N-1'-carbobutoxytetramethylene-2,3-epoxysuccinamate]
papain
  ID50: 118.41 γ

## O=C(O)C1OC1C(=O)N1CCCC1C(=O)O (stereo not shown) [Compound No. 99, potassium N-1'-carbopotassium oxytetramethylene-2,3-epoxysuccinamate]
papain
  ID50: 0.104 γ

## O=C(O)C1OC1C(=O)N1CCCC1C(=O)O (stereo not shown) [Compound No. 106, N-1'-carboxytetramethylene-2,3-epoxysuccinamic acid]
papain
  ID50: 0.301 γ
